According to patent US20190362816A1, “Systems and Methods for Developing Covalent Inhibitor Libraries for Screening Using Virtual Docking and Experimental Approaches” (Northwestern University, priority 2016, published 2019):

How the values were obtained:
cysteine protease papain [1] = molecular target: T1, cysteine protease papain (Carica papaya, UniProt P00784); assay: enzyme assay against cysteine protease papain (kinact/Ki); assay type: biochemical; conditions: covalent fragments of this work; J Med Chem. 2014, 57(11), 4969-74; read-out: Inhibitors of papain in this work, kinact/Ki
T1 sequence (P00784 134-345): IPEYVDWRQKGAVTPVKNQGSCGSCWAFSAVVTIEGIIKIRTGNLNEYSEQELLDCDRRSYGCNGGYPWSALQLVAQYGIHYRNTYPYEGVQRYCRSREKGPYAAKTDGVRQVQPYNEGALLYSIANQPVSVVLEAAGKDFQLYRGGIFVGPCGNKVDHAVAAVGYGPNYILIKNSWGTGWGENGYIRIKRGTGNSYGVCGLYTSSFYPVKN
Description: In a further embodiment, once the potential covalent inhibitor candidate libraries have been prepared, these candidates can be evaluated by dosing them in a specific assay at a specific concentration versus the receptor to determine the potency of each of the candidates. Depending on the covalent inhibitor, the receptor, and the therapeutic area, the assays will vary. Methods of performing wet chemistry assays are well known. Examples of covalent fragments evaluated in the enzyme assays against cysteine protease papain is shown below (J Med Chem. 2014 Jun. 12; 57(11):4969-74): […]

cysteine protease papain [2] = molecular target: T1, cysteine protease papain; conditions: J Med Chem. 2014, 57(11), 4969-74; cited from earlier work
[3] = molecular target: Cathepsin B cysteine protease (Homo sapiens, UniProt P07858); assay: inhibition of related Cathepsin B cysteine protease; assay type: biochemical; conditions: selectivity versus cathepsin L
[4] = molecular target: cysteine protease cathepsin L (Homo sapiens, UniProt P07711); assay: cathepsin L assay using commercially available fluorescent substrates; assay type: biochemical
Sequence of cysteine protease cathepsin L (P07711 114-333): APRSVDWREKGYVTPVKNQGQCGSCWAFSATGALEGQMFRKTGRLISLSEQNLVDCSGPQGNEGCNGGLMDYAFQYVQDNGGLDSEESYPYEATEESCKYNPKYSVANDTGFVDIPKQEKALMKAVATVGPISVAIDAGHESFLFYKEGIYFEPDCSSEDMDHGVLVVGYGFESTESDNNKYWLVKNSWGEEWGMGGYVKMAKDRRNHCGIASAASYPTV
Description: Experimental validation of identified inhibitors of cysteine protease cathepsin L. Identified covalent inhibitors (including 53) had been synthesized and tested in cathepsin L assays using commercially available fluorescent substrates for cathepsins (Calbiochem).

| Compound | kinact/KI (cysteine protease papain [1]) [M⁻¹ s⁻¹] | Known inhibitors of papain, kinact/Ki (cysteine protease papain [2]) [M⁻¹ s⁻¹] | also measured |
| --- | --- | --- | --- |
| COC(=O)/C=C/CNC(=O)c1cc(-c2ccc(C)cc2)on1 | 1.23 | – | – |
| COC(=O)/C=C/CNC(=O)c1sc(-c2ccccc2F)nc1C | 0.409 | – | – |
| COC(=O)/C=C/CNC(=O)[C@@H](CNC(C)=O)Cc1ccccc1 | – | 6.575 | – |
| COC(=O)/C=C/CNC(=O)C1CCN(C(=O)CC(C)C)CC1 | 0.461 | – | – |
| CC(Oc1ccc(Br)cc1Br)C(=O)NC/C=C/S(C)(=O)=O (racemic) [Compound 53] | – | – | inhibition of Cathepsin B [3]: does not inhibit; kinact/KI ([4]; detailed kinetic analysis): 4.1 M⁻¹ s⁻¹; Ki ([4]; fluorescent substrates (Calbiochem)): 134 ± 2 µM |
| COC(=O)/C=C/CNC(=O)[C@H](CNC(C)=O)Cc1ccccc1 | – | 0.386 | – |
| COC(=O)/C=C/CNC(=O)[C@@H](CNC(C)=O)CC(C)C | – | 1.102 | – |
| COC(=O)/C=C/CNC(=O)c1ccc(C2CCCO2)s1 (stereo not shown) | 0.037 | – | – |
